Measurements published in patent US20080076666A1, “Formulation” (priority 2005, published 2008).
In brackets after ≈: the same amount, converted by molar mass. Like-named read-outs stand apart in the source and are kept apart here.

Columns and labels:
[1] = Water solubility of UV protection dyes (Table 1); conditions: for solubility: water
[2] = Photo stabilisation study of COMPOUND (V) in gelatine microcapsules exposed to daylight (HPLC); format: physicochemical
Protocol: The HPLC system was from Waters comprising of two 510 pumps, a 717 plus Autosampler, a System Interface Module, a Lambda-Max 480 detector and Millennium Chromatography Manager software. Chromatography was achieved on a Zorbax ODS 5 μm C18 analytical column of dimension 4.6×250 mm internal diameter maintained at 35° C. Mobile phases were unmodified water (Milli-Q grade) in reservoir A and unmodified acetonitrile in reservoir B. Linear gradient elution was used with 70 to 90% B over the first 10 minutes, then 100% B for 3 minutes and returning to 70% B over 4 minutes. Injection cycle time was 20 minutes with a flow rate of 2 ml/min. The samples were either dissolved in acetonitrile or diethyl ether and 10 μl volume injected on to the column which was maintained at 35° C. Prior to use, mobile phase were degassed under vacuum with sonication and continuously sparged with helium. The naphthoquinones were detected by measurement of UV absorbance at 269 nm.
A batch of gelatine microcapsules containing 300 mg of COMPOUND (V) in 15 ml of Exxsol® D100 was produced.
The capsule slurry was washed repeatedly with water to remove debris and filtered to obtain a wet cake. An aliquot of the wet cake (11.3 g) was made up to 50 ml and dyed brown with Chocolate Brown (500 mg, equivalent to 10 mg/ml solution). Aliquots (200 μl) of microcapsule slurry of brown and undyed capsules were applied to glass microscope slides in duplicate. The slurry from each batch was spread to form a monolayer of microcapsules on each slide. The slides were air dried in a dark at room temperature (≅21° C.) and exposed to daylight on a south-facing windowsill for various time periods. Two slides from each batch were analysed per time point post of exposure. Unexposed slides stored in the dark were used as time zero reference.
The contents of the capsules were extracted by rupturing the capsules, by rolling a glass rod on the slides, and washing both the rod and the slide with diethyl ether. The extracts were made up to 10 ml and assayed by HPLC.

Compound | WATER SOLUBILITY [1] | other results
Nc1cc(N)c(N=Nc2cc([N+](=O)[O-])cc([N+](=O)[O-])c2O)cc1Cl [Mordant Brown 48] | 40 mg/mL | –
Cc1cc(N=Nc2ccc(C)c(N=Nc3cc(C)c(N)cc3N)c2)c(N)cc1N [Bismark Brown R] | – | solubility [1]: 70 mg/mL (≈ 180 mM)
CC(=O)OC1=C(C(C)CCC[Si](C)(C)C)C(=O)c2ccccc2C1=O (centres unmarked) [COMPOUND (V)] | – | amount of COMPOUND (V) in capsules, of the initial amount ([2]; Chocolate Brown dyed impervious gelatine microcapsules, 88 hours exposure to daylight (8 hours daylight over 11 days)): ~80%; amount of COMPOUND (V) in capsules, of the initial amount ([2]; undyed impervious gelatine microcapsules, 6 hours exposure to daylight): 60%; amount of COMPOUND (V) in capsules, of the initial amount ([2]; undyed impervious gelatine microcapsules, 16 hours exposure to daylight): 23%; amount of COMPOUND (V) in capsules, of the initial amount ([2]; undyed impervious gelatine microcapsules, 40 hours exposure to daylight (8 hours daylight over 5 days)): 6%; period for which COMPOUND (V) was stabilised on exposure to daylight ([2]; within impervious gelatine microcapsules (Chocolate Brown dyed)): in excess of eleven-days
Cc1c(C2(c3cc(Br)c(O)c(Br)c3C)OS(=O)(=O)c3ccccc32)cc(Br)c(O)c1Br [Bromocresol Green] | – | solubility [1]: 6 mg/mL (≈ 8.6 mM)
Cc1cc(O)ccc1C1(c2ccc(O)cc2C)OS(=O)(=O)c2ccccc21 [m-Cresol Purple] | 2 mg/mL | –
Cc1nn(-c2ccccc2)c([O-])c1N=Nc1cc([N+](=O)[O-])cc(S(=O)(=O)[O-])c1[O-].[Cr+3].[Na+].[OH-] [Acid Orange 74] | 20 mg/mL | –
O=S1(=O)OC(c2ccc(O)c(Cl)c2)(c2ccc(O)c(Cl)c2)c2ccccc21 [Chlorophenol Red] | 60 mg/mL | –
Cc1cc(N=Nc2cc([N+](=O)[O-])cc([N+](=O)[O-])c2O)c(N)cc1N [Mordant Brown 4] | – | WATER SOLUBILITY ([1]; hot water (remark)): 60 mg/mL
CN(C)c1ccc(/N=N/c2ccccc2C(=O)O)cc1 [Methyl Red] | – | solubility [1]: 2 mg/mL (≈ 7.43 mM)
Acid Orange 51 | 30 mg/mL | –
Nc1c(/N=N/c2ccc(-c3ccc(/N=N/c4cc(S(=O)(=O)O)c5ccccc5c4N)cc3)cc2)cc(S(=O)(=O)O)c2ccccc12 [Congo Red] | – | solubility [1]: 40 mg/mL (≈ 61.3 mM)

The next lines start with results.

WATER SOLUBILITY [1] | Compound | other results
50 mg/mL | Nc1ccc(N=Nc2cccc(N=Nc3ccc(N)cc3N)c2)c(N)c1 [Bismark Brown Y] | –
40 mg/mL | O=S(=O)([O-])c1ccc2c(N=Nc3ccccc3)c(O)ccc2c1.[Na+] [Crocein Orange G] | –
1 mg/mL | CC(=O)Nc1ccc2nc3c4ccccc4c(=N)cc-3oc2c1.Cl [Darrow Red] | –
100 mg/mL | CCN(CC)c1ccc(N=Nc2ccc(S(=O)(=O)[O-])cc2)cc1.[K+] [Ethyl Orange] | –
50 mg/mL | CC1=NN(c2ccc(S(=O)(=O)[O-])cc2)C(=O)C1N=Nc1ccc(-c2ccc(N=Nc3ccc(OS(=O)(=O)c4ccc(C)cc4)cc3)c(S(=O)(=O)[O-])c2)cc1.[Na+].[Na+] (centres unmarked) [Acid Orange 63] | –
60 mg/mL | Nc1cc(N)c(N=Nc2cccc3c(S(=O)(=O)O)cccc23)cc1N=Nc1cc([N+](=O)[O-])ccc1O.[Na] [Mordant Brown 1] | –
20 mg/mL | Nc1cc(N)c(S(=O)(=O)[O-])cc1N=Nc1cc([N+](=O)[O-])ccc1O.[Na+] [Mordant Brown 33] | –
3 mg/mL | CCN(CC)c1ccc(N=Nc2ccccc2C(=O)O)cc1 [Ethyl Red] | –
